Data reported in patent US20240148821A1, “PHARMACEUTICAL USE OF CYCLIC PEPTIDE COMPOUND” (CHUGAI SEIYAKU KABUSHIKI KAISHA, priority 2021, published 2024).
Numbered stars: 1 amine (or outer) side, 2 acyl side, 3 side chain; on linkers, the order of the positions; unused ones are H or OH. Bridge positions count the residues as written; N and C are the ends. Square brackets hold non-standard residues; d marks the D form. Peptide text beside a SMILES is read from it. * marks the point of attachment. hPhe(3-Cl-4-CF3) = N[C@@H](CCc1ccc(C(F)(F)F)c(Cl)c1)C(=O)O; X46 = CN([C@@H](CCC1CN(C(=O)OC(C)(C)C)C1)C(=O)[*:2])[*:1]; NMePhe(4-CF3) = CN[C@@H](Cc1ccc(C(F)(F)F)cc1)C(=O)O; X112 = O=C([C@H](CCOc1ccc(C(F)(F)F)cc1)N[*:1])[*:2]; hPhe(4-CF3) = N[C@@H](CCc1ccc(C(F)(F)F)cc1)C(=O)O; NMePhe(4-Cl) = CN[C@@H](Cc1ccc(Cl)cc1)C(=O)O; NMePhe(4-Me) = CN[C@@H](Cc1ccc(C)cc1)C(=O)O; hPhe(4-Cl) = N[C@@H](CCc1ccc(Cl)cc1)C(=O)O; NMedβ3hAla = C[C@H](CC(=O)[*:2])N(C)[*:1]; NMeGly(cPent) = CN[C@H](C(=O)O)C1CCCC1; NMeCha = CN[C@@H](CC1CCCCC1)C(=O)O; NMeGly(cPr) = CN[C@H](C(=O)O)C1CC1; Hyp = O=C(O)[C@@H]1C[C@@H](O)CN1; NMeAhp(2) = CCCCC[C@H](NC)C(=O)O; NMeChg = CN[C@H](C(=O)O)C1CCCCC1; NMeF = CN[C@@H](Cc1ccccc1)C(=O)O; NMeI = CC[C@H](C)[C@H](NC)C(=O)O; d(β3hL) = CC(C)C[C@@H](N)CC(=O)O; NMeD = CN[C@@H](CC(=O)O)C(=O)O; NMeL = CN[C@@H](CC(C)C)C(=O)O; NMeV = CN[C@H](C(=O)O)C(C)C; d(β3hA) = C[C@@H](N)CC(=O)O; Azetidin(1-yl) = C1CN(*)C1; NMeS = CN[C@@H](CO)C(=O)O; Morpholide = C1CN(*)CCO1; NMeA = CN[C@@H](C)C(=O)O; Nle = CCCC[C@H](N)C(=O)O; Piperidide = C1CCN(*)CC1; Thz = O=C(O)[C@@H]1CSCN1; Ac5c = NC1(C(=O)O)CCCC1; Aze = O=C(O)[C@@H]1CCN1; NEtG = CCNCC(=O)O; Sar = CNCC(=O)O; Propyl = CCC*

Molecular target: protein-protein interaction between Kras and SOS1 (biotin-tagged human Kras loaded with GDP, His-tagged human SOS1) (Homo sapiens (Human), UniProt P01116, G12D)
Experiment: Protein-protein interaction inhibition between Kras and SOS1 (KrasG12D-SOS PPI) using AlphaScreen;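 note: kras produced in E. coli, Ni-coupled donor beads and streptavidin acceptor beads, excitation 680 nm with emission detected at 520–620 nm via singlet oxygen transfer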
Type: biochemical
Conditions: AlphaScreen; biotin-tagged human Kras loaded with GDP, His-tagged human SOS1; read-out: KRAS G12D-SOS PPI IC50

Structure (SMILES) | IC50 [nM]
CC[C@H](C)[C@@H]1NC(=O)[C@H](C)N(C)C(=O)C[C@@H](C(=O)N2CCCCC2)N(C)C(=O)[C@H](C2CCCCC2)N(C)C(=O)C2(CCCC2)NC(=O)[C@@H]2CCCN2C(=O)[C@H](CCOc2ccc(C(F)(F)F)cc2)NC(=O)CN(C)C(=O)[C@H](CC2CCCCC2)N(C)C(=O)CN(C)C(=O)CN(C)C1=O [Compound 2041, (3S,9S,18S,21S,25S,28S,34S)-28-cyclohexyl-9-(cyclohexylmethyl)-7,10,13,16,21,22,26,29-octamethyl-18-[(1S)-1-methylpropyl]-25-(piperidine-1-carbonyl)-3-[2-[4-(trifluoromethyl)phenoxy]ethyl]spiro[1,4,7,10,13,16,19,22,26,29,32-undecazabicyclo[32.3.0]heptatriacontane-31,1′-cyclopentane]-2,5,8,11,14,17,20,23,27,30,33-undecone] ([NMeA]I[Sar][Sar][NMeCha][Sar][X112]P[Ac5c][NMeChg][NMeD]-Piperidide; lactam N-11) | 110
CC[C@H](C)[C@@H]1NC(=O)[C@H](CC(C)C)N(C)C(=O)C[C@@H](C(=O)N2CCCCC2)N(C)C(=O)[C@H](C2CCCCC2)N(C)C(=O)C2(CCCC2)NC(=O)[C@H](CCC2CN(C(=O)OC(C)(C)C)C2)N(C)C(=O)[C@H](CCc2ccc(C(F)(F)F)c(Cl)c2)NC(=O)CN(C)C(=O)[C@H](CC2CCCCC2)N(C)C(=O)CN(C)C(=O)CN(C)C1=O [Compound 2056, tert-butyl 3-[2-[(8S,11S,17S,26S,29S,33S,36S)-11-[2-[3-chloro-4-(trifluoromethyl)phenyl]ethyl]-36-cyclohexyl-17-(cyclohexylmethyl)-29-isobutyl-9,15,18,21,24,30,34,37-octamethyl-26-[(1S)-1-methylpropyl]-7,10,13,16,19,22,25,28,31,35,38-undecaoxo-33-(piperidine-1-carbonyl)-6,9,12,15,18,21,24,27,30,34,37-undecazaspiro[4.3 3]octatriacontan-8-yl]ethyl]azetidine-1-carboxylate] ([NMeL]I[Sar][Sar][NMeCha][Sar][hPhe(3-Cl-4-CF3)][X46][Ac5c][NMeChg][NMeD]-Piperidide; lactam N-11) | 13
CC[C@H](C)[C@@H]1NC(=O)[C@H](C)N(C)C(=O)C[C@@H](C)NC(=O)[C@H](CC(C)C)N(C)C(=O)[C@H](Cc2ccccc2)N(C)C(=O)[C@H](CC(C)C)NC(=O)[C@H](CCc2ccc(C(F)(F)F)cc2)NC(=O)CN(C)C(=O)[C@H](Cc2ccc(Cl)cc2)N(C)C(=O)CN(C)C(=O)CN(C)C1=O [Compound 271] (cyclo(I[Sar][Sar][NMePhe(4-Cl)][Sar][hPhe(4-CF3)]L[NMeF][NMeL][d(β3hA)][NMeA])) | 65
CC[C@H](C)[C@@H]1NC(=O)[C@H](C(C)C)N(C)C(=O)C[C@@H](CC(C)C)NC(=O)[C@H](CC(C)C)N(C)C(=O)C2(CCCC2)NC(=O)[C@H](CC(C)C)N(C)C(=O)[C@H](CCc2ccc(C(F)(F)F)cc2)NC(=O)CN(C)C(=O)[C@H](Cc2ccc(Cl)cc2)N(C)C(=O)CN(C)C(=O)CN(C)C1=O [Compound 113] (cyclo([Ac5c][NMeL][d(β3hL)][NMeV]I[Sar][Sar][NMePhe(4-Cl)][Sar][hPhe(4-CF3)][NMeL])) | 280
CC[C@H](C)[C@@H]1NC(=O)[C@H](CC(C)C)N(C)C(=O)C[C@@H](C(=O)N2CCCCC2)N(C)C(=O)[C@H](C2CCCCC2)N(C)C(=O)C2(CCCC2)NC(=O)[C@@H]2CSCN2C(=O)[C@H](CCc2ccc(C(F)(F)F)c(Cl)c2)NC(=O)CN(C)C(=O)[C@H](CC2CCCCC2)N(C)C(=O)CN(C)C(=O)CN(C)C1=O [Compound 1093] ([NMeL]I[Sar][Sar][NMeCha][Sar][hPhe(3-Cl-4-CF3)][Thz][Ac5c][NMeChg][NMeD]-Piperidide; lactam N-11) | 0.73
CC[C@H](C)[C@@H]1NC(=O)[C@H](CC(C)C)N(C)C(=O)C[C@@H](C)N(C)C(=O)[C@H]([C@@H](C)CC)N(C)C(=O)C2(CCCC2)NC(=O)[C@@H]2CCCN2C(=O)[C@H](CCc2ccc(C(F)(F)F)c(Cl)c2)NC(=O)CN(C)C(=O)[C@H](C2CCCC2)N(C)C(=O)[C@@H]2CCN2C(=O)[C@H](C)N(C)C1=O [Compound 79] (cyclo([Ac5c][NMeI][NMedβ3hAla][NMeL]I[NMeA][Aze][NMeGly(cPent)][Sar][hPhe(3-Cl-4-CF3)]P)) | 9.3
CC[C@H](C)[C@@H]1NC(=O)[C@H](CC(C)C)N(C)C(=O)C[C@@H](C(=O)N2CCCCC2)N(C)C(=O)[C@H]([C@@H](C)CC)N(C)C(=O)C2(CCCC2)NC(=O)[C@@H]2CCCN2C(=O)[C@H](CCc2ccc(C(F)(F)F)c(Cl)c2)NC(=O)CN(C)C(=O)[C@H](C2CCCC2)N(C)C(=O)[C@@H]2CCN2C(=O)[C@H](C)N(C)C1=O [Compound 807] ([NMeL]I[NMeA][Aze][NMeGly(cPent)][Sar][hPhe(3-Cl-4-CF3)]P[Ac5c][NMeI][NMeD]-Piperidide; lactam N-11) | 0.74
CCCC[C@@H]1NC(=O)[C@H](CCc2ccc(C(F)(F)F)c(Cl)c2)NC(=O)CN(C)C(=O)[C@H](Cc2ccc(Cl)cc2)N(C)C(=O)CN(C)C(=O)CN(C)C(=O)[C@H]([C@@H](C)CC)NC(=O)[C@H](CC(C)C)N(C)C(=O)C[C@@H](C)N(C)C(=O)[C@H](CC(C)C)NC(=O)[C@H](Cc2ccccc2)N(C)C1=O [Compound 566] (cyclo(I[Sar][Sar][NMePhe(4-Cl)][Sar][hPhe(3-Cl-4-CF3)][Nle][NMeF]L[NMedβ3hAla][NMeL])) | 160
CC[C@H](C)[C@@H]1NC(=O)[C@H](CC(C)C)N(C)C(=O)C[C@@H](C)NC(=O)[C@H](C2CCCC2)N(C)C(=O)C2(CCCC2)NC(=O)[C@@H]2CCCN2C(=O)[C@H](CCc2ccc(C(F)(F)F)c(Cl)c2)NC(=O)CN(C)C(=O)[C@H](Cc2ccc(C)cc2)N(C)C(=O)CN(C)C(=O)CN(C)C1=O [Compound 1471] (cyclo([Ac5c][NMeGly(cPent)][d(β3hA)][NMeL]I[Sar][Sar][NMePhe(4-Me)][Sar][hPhe(3-Cl-4-CF3)]P)) | 1.7
CC[C@H](C)[C@@H]1NC(=O)[C@H](CC(C)C)N(C)C(=O)C[C@@H](C(=O)N2CCC2)N(C)C(=O)[C@H](C2CCCC2)N(C)C(=O)C2(CCCC2)NC(=O)[C@@H]2CCCN2C(=O)[C@H](CCc2ccc(C(F)(F)F)c(Cl)c2)NC(=O)CN(CC)C(=O)[C@H](CC2CCCCC2)N(C)C(=O)[C@@H]2CCN2C(=O)[C@H](C)N(C)C1=O [Compound 726] ([NMeL]I[NMeA][Aze][NMeCha][NEtG][hPhe(3-Cl-4-CF3)]P[Ac5c][NMeGly(cPent)][NMeD]-{Azetidin(1-yl)}; lactam N-11) | 1.3
CC[C@H](C)[C@@H]1NC(=O)[C@H](CC(C)C)N(C)C(=O)C[C@@H](C)NC(=O)[C@H](C2CCCC2)N(C)C(=O)C2(CCCC2)NC(=O)[C@@H]2CCCN2C(=O)[C@H](CCc2ccc(C(F)(F)F)c(Cl)c2)NC(=O)CN(C)C(=O)[C@H](Cc2ccc(C(F)(F)F)cc2)N(C)C(=O)[C@@H]2CCN2C(=O)CN(C)C1=O [Compound 1496] (cyclo([Ac5c][NMeGly(cPent)][d(β3hA)][NMeL]I[Sar][Aze][NMePhe(4-CF3)][Sar][hPhe(3-Cl-4-CF3)]P)) | 2
CC[C@H](C)[C@@H]1NC(=O)[C@H](CC(C)C)N(C)C(=O)C[C@@H](C)NC(=O)[C@H](C(C)C)N(C)C(=O)C2(CCCC2)NC(=O)[C@@H]2CCCN2C(=O)[C@H](CCc2ccc(C(F)(F)F)c(Cl)c2)NC(=O)CN(C)C(=O)[C@H](CC2CCCCC2)N(C)C(=O)[C@@H]2CCN2C(=O)[C@H](C2CC2)N(C)C1=O [Compound 1586] (cyclo([Ac5c][NMeV][d(β3hA)][NMeL]I[NMeGly(cPr)][Aze][NMeCha][Sar][hPhe(3-Cl-4-CF3)]P)) | 59
CCCOC[C@H]1C(=O)N[C@@H]([C@@H](C)CC)C(=O)N(C)[C@@H](C)C(=O)N2CC[C@H]2C(=O)N(C)[C@@H](CC2CCCCC2)C(=O)N(C)CC(=O)N[C@@H](CCc2ccc(C(F)(F)F)c(Cl)c2)C(=O)N2CCC[C@H]2C(=O)NC2(CCCC2)C(=O)N(C)[C@@H](C(C)C)C(=O)N(C)[C@H](C(=O)N2CCCCC2)CC(=O)N1C [Compound 1763] ([NMeS](Propyl)I[NMeA][Aze][NMeCha][Sar][hPhe(3-Cl-4-CF3)]P[Ac5c][NMeV][NMeD]-Piperidide; lactam N-11) | 4.5
CCCCC[C@H]1C(=O)N[C@@H]([C@@H](C)CC)C(=O)N(C)[C@@H](C)C(=O)N2CC[C@H]2C(=O)N(C)[C@@H](CC2CCCCC2)C(=O)N(C)CC(=O)N[C@@H](CCc2ccc(C(F)(F)F)c(Cl)c2)C(=O)N2CCC[C@H]2C(=O)NC2(CCCC2)C(=O)N(C)[C@@H](C(C)C)C(=O)N(C)[C@H](C(=O)N2CCCCC2)CC(=O)N1C [Compound 1705] ([NMeAhp(2)]I[NMeA][Aze][NMeCha][Sar][hPhe(3-Cl-4-CF3)]P[Ac5c][NMeV][NMeD]-Piperidide; lactam N-11) | 9.8
CCO[C@@H]1C[C@H]2C(=O)NC3(CCCC3)C(=O)N(C)[C@@H](CC(C)C)C(=O)N(C)[C@H](C(=O)N3CCOCC3)CC(=O)N(C)[C@@H](CC(C)C)C(=O)N[C@@H]([C@@H](C)CC)C(=O)N(C)CC(=O)N(C)CC(=O)N(C)[C@@H](CC3CCCCC3)C(=O)N(C)CC(=O)N[C@@H](CCc3ccc(C(F)(F)F)c(Cl)c3)C(=O)N2C1 [Compound 1785] ([NMeL]I[Sar][Sar][NMeCha][Sar][hPhe(3-Cl-4-CF3)][Hyp](Et)[Ac5c][NMeL][NMeD]-Morpholide; lactam N-11) | 0.45
CC[C@H](C)[C@@H]1NC(=O)[C@H](CC(C)C)N(C)C(=O)C[C@@H](C)NC(=O)[C@H](C2CCCC2)N(C)C(=O)C2(CCCC2)NC(=O)[C@@H]2CCCN2C(=O)[C@H](CCc2ccc(C(F)(F)F)c(Cl)c2)NC(=O)CN(C)C(=O)[C@H](Cc2ccc(C(F)(F)F)cc2)N(C)C(=O)[C@@H]2CCN2C(=O)[C@H](C)N(C)C1=O [Compound 1475] (cyclo([Ac5c][NMeGly(cPent)][d(β3hA)][NMeL]I[NMeA][Aze][NMePhe(4-CF3)][Sar][hPhe(3-Cl-4-CF3)]P)) | 2.7
CC[C@H](C)[C@@H]1NC(=O)[C@H](CC(C)C)N(C)C(=O)C[C@@H](C(=O)N2CCCCC2)N(C)C(=O)[C@H](C(C)C)N(C)C(=O)C2(CCCC2)NC(=O)[C@@H]2CCCN2C(=O)[C@H](CCc2ccc(Cl)cc2)NC(=O)CN(C)C(=O)[C@H](CC2CCCCC2)N(C)C(=O)CN(C)C(=O)[C@@H]2CCCN2C1=O [Compound 530] ([NMeL]IP[Sar][NMeCha][Sar][hPhe(4-Cl)]P[Ac5c][NMeV][NMeD]-Piperidide; lactam N-11) | 140
